Assays:
Assay type in all cases: in vivo, SD rats
[1] = test system: right ventricular hypertrophy of rats in low-pressure low-oxygen cabin; test: Rat right ventricular hypertrophy index, low-pressure low-oxygen model; conditions: for Full heart / RV (weight of the right ventricles) / RV/(LV + IS) right ventricular hypertrophy index: x±s
Procedure: (§1) 40 healthy SD rats (180-220 g, male) are purchased from Beijing Vital River Laboratory Animal Technology Co. Ltd, belong to the SPF grade and have the license number of SCXK(Jing)2016-0006. The healthy SD rats are fed in a low-pressure oxygen cabin, and regularly fed with a complete nutritional feed under the conditions of the temperature of 22 to 25° C. and the humidity of 30% to 50%.
(§2) Solvent configuration: 5% of DMSO and 95% of normal saline with 10% of HP-β-CD, and pH=9.
(§3) An experimental group A: a low-pressure low-oxygen cabin, and intragastric administration of sc0062 (15 mg/kg) as well as a solvent
(§4) An experimental group B: a low-pressure low-oxygen cabin, and intragastric administration of sc0062 (30 mg/kg) as well as a solvent
(§5) 40 rats are randomly divided into four groups, each group includes 10 rats, 3 groups are placed into a low-pressure low-oxygen cabin, the pressure of the oxygen cabin is regulated to 380 mmHg, a high altitude environment with an altitude of 5,500 meters is simulated, the low-pressure low-oxygen cabin is opened for 1 hour every day so as to add foods and water for animals and carry out corresponding medicine treatment, and meanwhile, the environment where the rats are positioned are kept alternate day and night according to a ratio of 12 h:12 h. After 3 groups of rats are in the oxygen-poor environment for 14 days, intragastric administration is respectively carried out on the 3 groups of rats, the solvent (the model group), the sc0062 (15 mg/kg) and the solvent (the experimental group A) and the sc0062 (30 mg/kg) and the solvent (the experimental group B) are respectively applied to the 3 groups of rats, and the operation is continued for 14 days. Rats in the fourth group (the blank control group) are placed in the same room to be fed in the normal-pressure normal-oxygen environment.
(§6) 3% pentobarbital sodium (0.2 mL/100 g) is intraperitoneally injected to anesthetize the rats, ultrasonic detection is carried out, and the following ultrasonic data is recorded: PAT/PET (pulmonary arterial blood flow acceleration time/right ventricular […]); right ventricular ejection fraction EF; a right ventricular fractional shortening FS; and tricuspid annular plane systolic excursion TAPSE. The anesthetize rats are fixed on an operating table in a supine position mode, tracheotomy is carried out, a breathing machine is connected, and thoracotomy is carried out to expose the hearts. A catheter is inserted into each right ventricle, and the right ventricular systolic pressure is recorded. Then each catheter is slowly pushed forwards, can reach a corresponding pulmonary artery through a corresponding right ventricular outflow tract, the pressure waveform of a monitor is observed, and the mean pulmonary arterial pressure mPAP is recorded. Blood is collected and the rats are executed. The hearts and the lung tissue are taken out, the atrial tissue and the root of the main artery are removed, left and right ventricles are separated, bloodstain is washed out in PBS, moisture is sucked up by filter paper, and the weight of the right ventricles (RV) and the weight of the left ventricles and the […] (LV+IS) are respectively weighed. Calculation is carried out according to the following formula: right ventricular hypertrophy index=RV/(LV+IS).
(§7) All the data is represented by x±s, comparison among the groups is single factor analysis of variance, when P<0.05, it represents that the difference has a statistical significance, and statistical treatment is carried out by adopting an SPSS 22.0 software package.

[2] = test system: right ventricular function of rats in low-pressure low-oxygen cabin; test: Echocardiography of rats in low-pressure low-oxygen cabin (simulated altitude 5,500 m); conditions: x±s
Procedure: as §1, §2, §3, §4, §5, §6, §7

[3] = test system: pulmonary arterial hypertension of model rats; test: Rat haemodynamics: mean pulmonary arterial pressure by right heart catheter, low-pressure low-oxygen model; conditions: for mPVP: x±s
Procedure: as §1, §2, §3, §4
40 rats are randomly divided into four groups, each group includes 10 rats, 3 groups are placed into a low-pressure low-oxygen cabin, the pressure of the oxygen cabin is regulated to 380 mmHg, a high altitude environment with an altitude of 5,500 meters is simulated, the low-pressure low-oxygen cabin is opened for 1 hour every day so as to add foods and water for animals and carry out corresponding medicine treatment, and meanwhile, the environment where the rats are positioned are kept alternate day and night according to a ratio of 12 h:12 h. […]
3% pentobarbital sodium (0.2 mL/100 g) is intraperitoneally injected to anesthetize the rats, ultrasonic detection is carried out, and the following ultrasonic data is recorded: PAT/PET (pulmonary arterial blood flow acceleration time/right ventricular […]); right ventricular ejection fraction EF; a right ventricular fractional shortening FS; and tricuspid annular plane systolic excursion TAPSE. […] A catheter is inserted into each right ventricle, and the right ventricular systolic pressure is recorded. Then each catheter is slowly pushed forwards, can reach a corresponding pulmonary artery through a corresponding right ventricular outflow tract, the pressure waveform of a monitor is observed, and the mean pulmonary arterial pressure mPAP is recorded. […]

[4] = 15 mg/kg intragastric for 14 days after 14 days hypoxia (380 mmHg)
[5] = 30 mg/kg intragastric for 14 days after 14 days hypoxia (380 mmHg)

COCCNS(=O)(=O)Nc1ncnc(OCCOc2ncc(Br)cn2)c1-c1ccc2c(c1)OCO2 [sc0062]
Full heart [1, 4]: 1.47 ± 0.24 | RV (weight of the right ventricles) [1, 4]: 0.56 ± 0.09 | RV/(LV + IS) right ventricular hypertrophy index [1, 4]: 0.38 ± 0.02 | Full heart [1, 5]: 1.30 ± 0.21 | RV (weight of the right ventricles) [1, 5]: 0.48 ± 0.11 | RV/(LV + IS) right ventricular hypertrophy index [1, 5]: 0.36 ± 0.02 | right ventricular hypertrophy index compared with the model group ([1]; experimental groups A and B (15 and 30 mg/kg), p<0.05): reduced | PAT/PET [2, 4]: 0.39 ± 0.07 | Right ventricular EF [2, 4]: 67.25 ± 13.01 | Right ventricular FS [2, 4]: 37.02 ± 10.63 | TAPSE [2, 4]: 2.05 ± 0.29 | PAT/PET [2, 5]: 0.40 ± 0.07 | Right ventricular EF [2, 5]: 71.32 ± 9.35 | Right ventricular FS [2, 5]: 39.76 ± 7.24 | TAPSE [2, 5]: 1.93 ± 0.44 | mPVP [3, 4]: 31.39 ± 3.90 | mPVP [3, 5]: 26.91 ± 4.35 | mean pulmonary arterial pressure compared with the model group ([3]; experimental groups A and B (15 and 30 mg/kg), p<0.01): significantly raised

Source: patent US11628168B2, “Medical application of pyrimidine sulfonamides derivatives” (CHINESE PLA GENERAL HOSPITAL, priority 2018, dated 2023)
